In the supplement of paper PMC10307832:

Legend:
Test in all cases: relative viability (nuclei count vs DMSO), 5 days (fraction); higher = more cells survive
Imatinib + OSI-027 = compound: Cc1ccc(NC(=O)c2ccc(CN3CCN(C)CC3)cc2)cc1Nc1nccc(-c2cccnc2)n1 [Imatinib] + COc1cccc2cc(-c3nc([C@H]4CC[C@H](C(=O)O)CC4)n4ncnc(N)c34)[nH]c12 [OSI-027] (partner 0.5 µM)
Summary of the method: (§1)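 For relative viability, nuclei counts in treated wells were divided by those in vehicle wells. Lung cancer cell lines had been pin-tool dosed in 1536-well plates the day after seeding and cultured for 5 days, then fixed and stained in one step (final 0.05% Triton X-100, 1% formaldehyde, 1 ug/ml Hoechst) and imaged at 4×. Doses were one drug alone or a fixed anchor-drug dose plus five library-drug doses (not always all listed) in √10 steps, and values are duplicate-plate medians.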

Imatinib + AZD7762 = compound: Cc1ccc(NC(=O)c2ccc(CN3CCN(C)CC3)cc2)cc1Nc1nccc(-c2cccnc2)n1 [Imatinib] + NC(=O)Nc1cc(-c2cccc(F)c2)sc1C(=O)N[C@H]1CCCNC1 [AZD7762] (partner 0.2 µM)
Summary of the method: as §1

Imatinib + Decitabine = compound: Cc1ccc(NC(=O)c2ccc(CN3CCN(C)CC3)cc2)cc1Nc1nccc(-c2cccnc2)n1 [Imatinib] + Nc1ncn([C@H]2C[C@H](O)[C@@H](CO)O2)c(=O)n1 [Decitabine] (partner 2 µM)
Summary of the method: as §1

Imatinib + Olaparib = compound: Cc1ccc(NC(=O)c2ccc(CN3CCN(C)CC3)cc2)cc1Nc1nccc(-c2cccnc2)n1 [Imatinib] + O=C(c1cc(Cc2n[nH]c(=O)c3ccccc23)ccc1F)N1CCN(C(=O)C2CC2)CC1 [Olaparib] (partner 8 µM)
Summary of the method: as §1

Row | Cell Line | relative viability (Imatinib + OSI-027; first compound 0.02 µM) | relative viability (Imatinib + OSI-027; first compound 0.06325 µM) | relative viability (Imatinib + OSI-027; first compound 0.2 µM) | relative viability (Imatinib + OSI-027; first compound 0.6325 µM) | relative viability (Imatinib + AZD7762; first compound 0.02 µM) | relative viability (Imatinib + AZD7762; first compound 0.06325 µM) | relative viability (Imatinib + AZD7762; first compound 0.2 µM) | relative viability (Imatinib + AZD7762; first compound 0.6325 µM) | relative viability (Imatinib + AZD7762; first compound 2 µM) | relative viability (Imatinib + Decitabine; first compound 0.02 µM) | relative viability (Imatinib + Decitabine; first compound 0.06325 µM) | relative viability (Imatinib + Decitabine; first compound 0.2 µM) | relative viability (Imatinib + Decitabine; first compound 0.6325 µM) | relative viability (Imatinib + Decitabine; first compound 2 µM) | relative viability (Imatinib + Olaparib; first compound 0.02 µM) | relative viability (Imatinib + Olaparib; first compound 0.06325 µM) | relative viability (Imatinib + Olaparib; first compound 0.2 µM) | relative viability (Imatinib + Olaparib; first compound 0.6325 µM) | relative viability (Imatinib + Olaparib; first compound 2 µM) | relative viability (Imatinib + OSI-027; first compound 2 µM)
1 | 201T | 0.865 | 0.798 | 0.762 | 0.761 | 0.72 | 0.399 | 0.589 | 0.541 | 0.517 | 0.855 | 0.8 | 0.841 | 0.852 | 0.843 | 0.879 | 0.873 | 0.845 | 0.814 | 0.836 | –
2 | A-427 | 0.503 | – | 0.5 | 0.447 | 0.812 | 0.84 | 0.634 | 0.654 | 0.572 | 0.588 | 0.536 | 0.558 | 0.558 | 0.562 | 0.797 | – | 0.754 | 0.715 | 0.748 | 0.47
3 | ABC-1 | 0.516 | – | 0.504 | 0.521 | 0.821 | – | 0.786 | – | 0.726 | 1.22 | – | 0.909 | 1.15 | 1.06 | 1 | – | 0.732 | 0.785 | 0.581 | 0.564
4 | BEN | 0.285 | – | 0.262 | 0.287 | 0.702 | 0.544 | 0.681 | 0.782 | 0.582 | 0.711 | 0.557 | 0.738 | 0.732 | 0.732 | 1.2 | 1.14 | 1.01 | 1.08 | 1.06 | 0.302
5 | CAL-12T | 0.714 | – | 0.605 | 0.702 | 0.692 | 0.724 | 0.637 | 0.699 | – | – | – | – | – | – | 0.756 | – | 0.735 | 0.634 | 0.77 | 0.471
6 | COR-L23 | 0.869 | 0.831 | 0.853 | 0.824 | – | – | – | – | – | 0.382 | 0.507 | 0.474 | 0.409 | 0.455 | 0.394 | 0.367 | 0.363 | 0.383 | 0.308 | 0.64
7 | COR-L 105 | 0.771 | 0.739 | 0.65 | 0.653 | – | – | – | – | – | 0.709 | 0.694 | 0.675 | 0.563 | 0.655 | 0.873 | 0.663 | 0.678 | 0.724 | 0.665 | 0.685
8 | Calu-6 | – | – | – | – | – | – | – | – | – | – | – | – | – | – | 0.658 | 0.628 | 0.673 | 0.575 | 0.549 | –
9 | ChaGo-K-1 | 0.444 | 0.511 | 0.538 | 0.56 | 0.979 | – | 0.941 | 0.791 | 0.943 | 0.525 | – | 0.534 | 0.503 | 0.503 | 0.389 | – | 0.394 | 0.42 | 0.45 | 0.491
10 | EBC-1 | – | – | – | – | – | – | – | – | – | – | – | – | – | – | 0.776 | 0.719 | 0.728 | 0.68 | 0.573 | –
11 | EKVX | – | 0.388 | 0.65 | 0.551 | – | – | 0.617 | 0.723 | – | 0.325 | – | 0.375 | 0.352 | – | 1.05 | – | 1.12 | 0.923 | – | 0.868
12 | EMC-BAC-2 | 0.378 | 0.338 | 0.39 | 0.399 | 1.21 | 1.3 | 1.19 | 1.21 | 1.11 | 0.998 | 1.04 | – | 1.07 | 0.936 | 0.465 | 0.551 | 0.474 | 0.592 | 0.486 | 0.364
13 | EPLC-272H | 0.265 | – | 0.273 | 0.311 | 0.218 | – | – | 0.156 | 0.15 | 0.327 | – | – | 0.408 | 0.33 | 0.669 | – | – | 0.795 | 0.732 | 0.249
14 | H3255 | 0.568 | 0.662 | 0.539 | 0.612 | 1.02 | 0.784 | – | 0.95 | 0.842 | 0.605 | – | 0.544 | 0.633 | 0.504 | 0.576 | 0.572 | 0.565 | 0.566 | 0.612 | 0.548
15 | HARA | 0.47 | – | 0.518 | 0.583 | 0.361 | 0.267 | 0.292 | 0.232 | 0.304 | 0.584 | 0.518 | 0.503 | 0.473 | 0.579 | 0.408 | 0.568 | – | 0.896 | 0.68 | 0.404
16 | HCC-15 | 0.716 | – | 0.623 | 0.683 | 0.449 | – | 1.32 | 1.42 | 1.3 | 0.605 | 0.598 | 0.638 | 0.677 | 0.524 | 0.773 | – | 0.719 | 0.791 | 0.742 | 0.666
17 | HCC-44 | 0.484 | 0.422 | 0.437 | 0.466 | – | – | 1.13 | 1.01 | 0.968 | 0.967 | – | 0.954 | 0.971 | 0.899 | 0.956 | – | – | 1.02 | 0.967 | 0.461
18 | HCC-78 | 0.332 | 0.387 | 0.389 | 0.366 | 0.592 | 0.714 | – | 0.636 | 0.58 | 0.644 | 0.7 | 0.715 | 0.721 | 0.71 | 0.564 | 0.688 | 1.09 | 0.885 | 0.999 | 0.314
19 | HCC-366 | 1.01 | – | 1.05 | 0.812 | 0.367 | 0.364 | 0.288 | 0.208 | 0.181 | 0.324 | 0.366 | 0.356 | 0.374 | 0.329 | 0.427 | 0.336 | 0.389 | 0.335 | 0.346 | 0.748
20 | HCC-827 | – | 0.732 | 0.937 | 0.705 | 0.189 | 0.215 | 0.195 | 0.17 | 0.157 | 0.31 | 0.32 | 0.311 | 0.36 | 0.307 | 0.741 | 0.724 | 0.762 | 0.639 | 0.628 | 0.824
